Measured values taken from patent US8497278B2, “Imidazo[1,2-a]pyridine compounds” (priority 2008, dated 2013).

Key:
[1] = molecular target: T1, α1 subtype containing GABA-A receptors (Homo sapiens, UniProt P14867+P18507); test: Two-electrode voltage clamp electrophysiology in Xenopus oocytes, potentiation of GABA EC20 response, α1; format: cell-based; details: 100 nM compound; for activation at 0.1 µM: read-out: Percentage of potentiation alpha1
T1 construct: expressed in transfected cells; host or cells: Xenopus laevis oocytes, cRNA injected
T1 sequence (P14867 28-456): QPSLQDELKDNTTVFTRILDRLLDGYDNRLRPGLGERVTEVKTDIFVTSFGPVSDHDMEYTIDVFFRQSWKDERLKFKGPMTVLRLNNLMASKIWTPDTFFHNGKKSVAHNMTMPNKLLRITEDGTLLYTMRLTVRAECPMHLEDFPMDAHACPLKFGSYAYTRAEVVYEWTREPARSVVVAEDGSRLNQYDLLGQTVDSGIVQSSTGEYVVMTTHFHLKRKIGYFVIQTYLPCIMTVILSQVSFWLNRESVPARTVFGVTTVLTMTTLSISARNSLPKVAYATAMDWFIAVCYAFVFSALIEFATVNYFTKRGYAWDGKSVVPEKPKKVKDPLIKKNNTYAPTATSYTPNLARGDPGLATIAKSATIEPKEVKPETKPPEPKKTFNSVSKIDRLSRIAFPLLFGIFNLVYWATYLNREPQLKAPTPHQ
T1 sequence (P28472 26-473 partner): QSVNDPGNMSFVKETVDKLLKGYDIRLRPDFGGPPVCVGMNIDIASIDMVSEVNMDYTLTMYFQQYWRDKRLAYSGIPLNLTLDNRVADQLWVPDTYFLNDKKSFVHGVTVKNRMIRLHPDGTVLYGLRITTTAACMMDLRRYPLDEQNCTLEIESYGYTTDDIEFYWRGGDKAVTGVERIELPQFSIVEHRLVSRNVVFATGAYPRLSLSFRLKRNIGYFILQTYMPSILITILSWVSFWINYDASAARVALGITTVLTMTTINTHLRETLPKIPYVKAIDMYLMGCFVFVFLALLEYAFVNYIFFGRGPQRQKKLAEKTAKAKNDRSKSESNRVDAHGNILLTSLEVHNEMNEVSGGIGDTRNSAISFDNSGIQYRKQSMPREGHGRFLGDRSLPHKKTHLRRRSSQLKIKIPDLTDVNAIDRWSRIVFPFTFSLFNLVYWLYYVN
T1 sequence (P18507 40-475): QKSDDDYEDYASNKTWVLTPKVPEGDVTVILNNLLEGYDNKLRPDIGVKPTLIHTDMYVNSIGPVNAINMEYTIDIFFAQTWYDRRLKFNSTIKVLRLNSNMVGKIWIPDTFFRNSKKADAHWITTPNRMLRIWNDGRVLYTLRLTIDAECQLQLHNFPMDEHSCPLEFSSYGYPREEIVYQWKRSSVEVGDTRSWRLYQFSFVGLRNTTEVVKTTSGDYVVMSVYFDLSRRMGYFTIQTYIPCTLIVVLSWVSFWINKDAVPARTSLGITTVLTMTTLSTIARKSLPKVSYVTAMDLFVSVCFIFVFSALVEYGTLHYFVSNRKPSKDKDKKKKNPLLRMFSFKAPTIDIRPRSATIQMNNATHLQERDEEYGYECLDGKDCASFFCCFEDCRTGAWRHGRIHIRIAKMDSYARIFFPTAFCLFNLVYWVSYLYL
Summary of the method: (§1)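 Human α1/α2/α3/α5 with β3 and γ2L subunits expressed in Xenopus oocytes from injected cRNA, clamped at −80 mV in ND96 (pH 7.5). After baseline responses to GABA at EC20 (60 μM), 1 μM chlordiazepoxide served as potentiation standard, then test compound at 100 nM; one compound per oocyte.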

[2] = molecular target: T2, α5 subtype containing GABA-A receptors (Homo sapiens, UniProt P18507+P31644); test: Two-electrode voltage clamp electrophysiology in Xenopus oocytes, potentiation of GABA EC20 response, α5; format: cell-based; details: 100 nM compound; for activation at 0.1 µM: read-out: Percentage of potentiation alpha5
T2 construct: expressed in transfected cells; host or cells: Xenopus laevis oocytes, cRNA injected
T2 sequence (P31644 32-462): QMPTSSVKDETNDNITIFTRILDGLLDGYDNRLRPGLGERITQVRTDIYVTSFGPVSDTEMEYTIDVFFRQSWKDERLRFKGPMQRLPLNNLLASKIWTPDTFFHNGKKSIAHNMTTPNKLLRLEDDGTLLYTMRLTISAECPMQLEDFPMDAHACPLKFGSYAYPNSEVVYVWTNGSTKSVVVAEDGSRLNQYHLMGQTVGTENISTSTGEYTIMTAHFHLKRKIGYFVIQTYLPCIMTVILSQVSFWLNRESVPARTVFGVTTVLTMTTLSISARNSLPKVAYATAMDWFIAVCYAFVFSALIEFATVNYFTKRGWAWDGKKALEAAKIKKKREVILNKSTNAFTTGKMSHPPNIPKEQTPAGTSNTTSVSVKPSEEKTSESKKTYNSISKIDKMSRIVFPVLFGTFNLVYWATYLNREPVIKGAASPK
T2 sequence (P28472 26-473 partner): as the sequence (P28472 26-473 partner) above
T2 sequence (P18507 40-475): as the sequence (P18507 40-475) above
Description: (§2) Electrophysiology protocol: Oocytes were prepared from adult female Xenopus laevis frogs. cRNA encoding human α1, α2, α3, α5, β3 and γ2L GABAA receptor subunits was injected into the cytoplasm of stage 5 or 6 oocytes using the Robocyte Robot (Multi Channel Systems, Reutlingen, Germany). Two-electrode voltage clamp recordings were made in 96-well plates using the Robocyte Robot. Oocytes were impaled using recording heads with two glass electrodes containing 1.5 M potassium acetate and 0.5 M KCl and held at a membrane potential of −80 mV. Oocytes were continually perfused with a ND96 solution (96 mM NaCl, 2 mM KCl, 0.1 mM CaCl2, and 5 mM HEPES, pH 7.5) using a Gilson 222 XL Liquid Handler and Gilson Minipuls 3 Peristaltic Pump (Gilson Medical Electronics, Middleton, Wis., USA). The protocol consisted of three 20-s applications of GABA that gave a 20% of the maximum response (EC20: 60 μM) to allow for headroom to determine a baseline GABA response. To assess the potentiation, oocytes were first exposed to a single 1 μM chlordiazepoxide (CDP) as a potentiation standard. Oocytes with insufficient expression levels (currents below threshold) or insufficient γ2L subunit incorporation (judged by rapid desensitization upon GABA application, or by insufficient potentiation by CDP) were not included in analysis. Following this control application, a given oocyte was exposed to test compounds at 100 nM concentrations. Only one concentration of one compound was tested per oocyte. […] One skilled in the art will recognize that subtypes contribute to the effects of GABA-A modulators. Such that compounds favoring different subtypes can have different therapeutic effects. The magnitude of modulation, for example, partial modulators can influence the effects in vivo. “++” indicates a greater modulation that “+” so that at any given subtype “++” inducates a greater amount of modulation for that subtype. In some embodiments, modulation favoring alpha 1 relative to alpha2 and/or alpha 3 can have sedative hypnotic effects. In other embodiments, compounds with reduced selectivity of alpha 1 can express anxiolytic effects with less sedation. Compounds with selectivity for alpha 5 can have memory/cognition enhancing effects.

[3] = molecular target: T3, α2 subtype containing GABA-A receptors (Homo sapiens, UniProt P18507+P47869); test: Two-electrode voltage clamp electrophysiology in Xenopus oocytes, potentiation of GABA EC20 response, α2; format: cell-based; details: 100 nM compound; for activation at 0.1 µM: read-out: Percentage of potentiation alpha2
T3 construct: expressed in transfected cells; host or cells: Xenopus laevis oocytes, cRNA injected
T3 sequence (P47869 29-451): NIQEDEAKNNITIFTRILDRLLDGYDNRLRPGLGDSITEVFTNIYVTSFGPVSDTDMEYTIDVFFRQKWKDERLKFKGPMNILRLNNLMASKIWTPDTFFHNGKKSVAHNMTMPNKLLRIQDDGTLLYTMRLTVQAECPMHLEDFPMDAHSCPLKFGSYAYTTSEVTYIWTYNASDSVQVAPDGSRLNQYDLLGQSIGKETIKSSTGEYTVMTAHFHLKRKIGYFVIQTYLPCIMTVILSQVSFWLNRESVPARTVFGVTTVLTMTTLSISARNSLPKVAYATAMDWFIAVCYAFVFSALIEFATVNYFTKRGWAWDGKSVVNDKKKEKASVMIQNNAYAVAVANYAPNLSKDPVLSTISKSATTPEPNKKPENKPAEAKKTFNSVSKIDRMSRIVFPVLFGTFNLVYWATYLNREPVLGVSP
T3 sequence (P28472 26-473 partner): as the sequence (P28472 26-473 partner) above
T3 sequence (P18507 40-475): as the sequence (P18507 40-475) above
Summary of the method: as §1

[4] = molecular target: T4, α3 subtype containing GABA-A receptors (Homo sapiens, UniProt P18507+P34903); test: Two-electrode voltage clamp electrophysiology in Xenopus oocytes, potentiation of GABA EC20 response, α3; format: cell-based; details: 100 nM compound; for activation at 0.1 µM: read-out: Percentage of potentiation alpha3
T4 construct: expressed in transfected cells; host or cells: Xenopus laevis oocytes, cRNA injected
T4 sequence (P34903 29-492): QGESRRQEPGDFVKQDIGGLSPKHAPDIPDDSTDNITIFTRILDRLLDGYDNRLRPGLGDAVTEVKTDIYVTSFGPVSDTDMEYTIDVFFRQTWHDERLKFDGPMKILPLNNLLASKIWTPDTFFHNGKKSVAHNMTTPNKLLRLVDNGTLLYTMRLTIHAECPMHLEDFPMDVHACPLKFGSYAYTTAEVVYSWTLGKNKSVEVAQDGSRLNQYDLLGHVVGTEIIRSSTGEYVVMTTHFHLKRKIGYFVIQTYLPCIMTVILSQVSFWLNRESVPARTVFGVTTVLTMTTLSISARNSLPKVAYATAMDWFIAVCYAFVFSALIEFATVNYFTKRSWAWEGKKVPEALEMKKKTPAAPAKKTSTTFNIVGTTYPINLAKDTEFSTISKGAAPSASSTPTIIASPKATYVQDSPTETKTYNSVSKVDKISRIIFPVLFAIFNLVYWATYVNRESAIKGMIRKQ
T4 sequence (P28472 26-473 partner): as the sequence (P28472 26-473 partner) above
T4 sequence (P18507 40-475): as the sequence (P18507 40-475) above
Description: as §2

[5] = test system: central benzodiazepine receptors; test: Central benzodiazepine receptor binding (test of Speth et al.); details: 1000 nM of the compound
Summary of the method: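 Radioligand binding by the Speth et al. method. Specific binding is total minus nonspecific binding, the latter measured with excess unlabelled ligand. Compounds screened at 1.0E-09, 1.0E-07 and 1.0E-05 M in single determination; values given as percent inhibition at 1000 nM compound.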

Structure (SMILES) | Percentage of potentiation alpha1 [1] | Percentage of potentiation alpha5 [2] | Percentage of potentiation alpha2 [3] | Percentage of potentiation alpha3 [4] | % Inhibition at 1000 nM for CBZD [5] | activation at 0.1 µM [1] | activation at 0.1 µM [2] | activation at 0.1 µM [3] | activation at 0.1 µM [4]
Cc1ccc(-c2nc3ccc(C)cn3c2Cn2cnc3ncccc32)cc1 [Compound 15, 1-((6-Methyl-2-p-tolylH-imidazo[1,2-a]pyridin-3-yl)methyl)-1H-imidazo[4,5-b]pyridine] | + (percentage of potentiation is greater than or equal to 10% but less than 50% in the presence of 100 nM of the compound) | 0 (percentage of potentiation is between about 10% to about −10%) | + (percentage of potentiation is greater than or equal to 10% but less than 50% in the presence of 100 nM of the compound) | + (percentage of potentiation is greater than or equal to 10% but less than 50% in the presence of 100 nM of the compound) | ++ (percentage of inhibition of central BZD site binding is greater than 80% in the presence of 1000 nM of the compound) | – | – | – | –
Cc1ccc(-c2nc3ccc(C)cn3c2Cn2cnc3c(N(C)C)ncnc32)cc1 [Compound 17, N,N-Dimethyl-9-((6-methyl-2-p-tolylH-imidazo[1,2-a]pyridin-3-yl)methyl)-9H-purin-6-amine] | + (percentage of potentiation is greater than or equal to 10% but less than 50% in the presence of 100 nM of the compound) | 0 (percentage of potentiation is between about 10% to about −10%) | + (percentage of potentiation is greater than or equal to 10% but less than 50% in the presence of 100 nM of the compound) | 0 (percentage of potentiation is between about 10% to about −10%) | ++ (percentage of inhibition of central BZD site binding is greater than 80% in the presence of 1000 nM of the compound) | – | – | – | –
COC(=O)c1ncnn1Cc1c(-c2ccc(Cl)cc2)nc2ccc(Cl)cn12 [Compound 21, Methyl 2-((6-chloro-2-(4-chlorophenyl)H-imidazo[1,2-a]pyridin-3-yl)methyl)-2H-1,2,4-triazole-3-carboxylate] | + (percentage of potentiation is greater than or equal to 10% but less than 50% in the presence of 100 nM of the compound) | 0 (percentage of potentiation is between about 10% to about −10%) | + (percentage of potentiation is greater than or equal to 10% but less than 50% in the presence of 100 nM of the compound) | + (percentage of potentiation is greater than or equal to 10% but less than 50% in the presence of 100 nM of the compound) | ++ (percentage of inhibition of central BZD site binding is greater than 80% in the presence of 1000 nM of the compound) | – | – | – | –
CC(C)OC(=O)c1ncnn1Cc1c(-c2ccc(Cl)cc2)nc2ccc(Cl)cn12 [Compound 23, 2-[6-Chloro-2-(4-chloro-phenyl)-imidazo[1,2-a]pyridin-3-ylmethyl]-2H-[1,2,4]triazole-3-carboxylic acid isopropyl ester] | – | – | – | – | ++ (percentage of inhibition of central BZD site binding is greater than 80% in the presence of 1000 nM of the compound) | 10 to 50% | -10 to 10% | 10 to 50% | 10 to 50%
Clc1ccc(-c2nc3ccccn3c2Cn2nccn2)cc1 [Compound 39, 2-(4-Chloro-phenyl)-3-[1,2,3]triazol-2-ylmethyl-imidazo[1,2-a]pyridine] | – | – | – | – | ++ (percentage of inhibition of central BZD site binding is greater than 80% in the presence of 1000 nM of the compound) | 10 to 50% | -10 to 10% | 10 to 50% | 10 to 50%
Fc1ccc2nc(-c3ccc(Cl)cc3)c(Cn3nnc4ccccc43)n2c1 [Compound 58, 1-((2-(4-chlorophenyl)-6-fluoroH-imidazo[1,2-a]pyridin-3-yl)methyl)-1H-benzo[d][1,2,3]triazole] | + (percentage of potentiation is greater than or equal to 10% but less than 50% in the presence of 100 nM of the compound) | 0 (percentage of potentiation is between about 10% to about −10%) | + (percentage of potentiation is greater than or equal to 10% but less than 50% in the presence of 100 nM of the compound) | 0 (percentage of potentiation is between about 10% to about −10%) | ++ (percentage of inhibition of central BZD site binding is greater than 80% in the presence of 1000 nM of the compound) | – | – | – | –
COC1=CC(=O)N(Cc2c(-c3ccc(Cl)cc3)nc3ccc(Cl)cn23)C1 [Compound 114, 1-((6-chloro-2-(4-chlorophenyl)H-imidazo[1,2-a]pyridin-3-yl)methyl)-4-methoxy-1H-pyrrol-2(5H)-one] | ++ (percentage of potentiation is greater than or equal to 50% in the presence of 100 nM of the compound) | 0 (percentage of potentiation is between about 10% to about −10%) | + (percentage of potentiation is greater than or equal to 10% but less than 50% in the presence of 100 nM of the compound) | + (percentage of potentiation is greater than or equal to 10% but less than 50% in the presence of 100 nM of the compound) | – | – | – | – | –
O=c1n(Cc2c(-c3ccc(Cl)cc3)nc3ccccn23)nc2ccccn12 [Compound 119, 2-((2-(4-chlorophenyl)imidazo[1,2-a]pyridin-3-yl)methyl)-[1,2,4]triazolo[4,3-a]pyridin-3(2H)-one] | – | – | – | – | ++ (percentage of inhibition of central BZD site binding is greater than 80% in the presence of 1000 nM of the compound) | -10 to 10% | -10 to 10% | 10 to 50% | -10 to 10%
O=c1cc(Cl)n(Cc2c(-c3ccc(Cl)cc3)nc3ccccn23)c(=O)[nH]1 [Compound 128, 6-chloro-1-((2-(4-chlorophenyl)imidazo[1,2-a]pyridin-3-yl)methyl)pyrimidine-2,4(1H,3H)-dione] | – | – | – | – | ++ (percentage of inhibition of central BZD site binding is greater than 80% in the presence of 1000 nM of the compound) | -10 to 10% | 10 to 50% | 10 to 50% | -10 to 10%
NNC(=O)c1nc(Cc2c(-c3ccc(Cl)cc3)nc3ccc(F)cn23)no1 [Compound 216, 3-((2-(4-chlorophenyl)-6-fluoroimidazo[1,2-a]pyridin-3-yl)methyl)-1,2,4-oxadiazole-5-carbohydrazide] | – | – | – | – | – | 10 to 50% | -10 to 10% | ≥ 50% | 10 to 50%
CNC(=O)c1nc(Cc2c(-c3ccc(F)cc3)nc3ccc(F)cn23)no1 [Compound 220, 3-((2-(4-fluorophenyl)-6-fluoroimidazo[1,2-a]pyridin-3-yl)methyl)-1,2,4-oxadiazole-5-N-methyl-carboxamide] | 0 (percentage of potentiation is between about 10% to about −10%) | 0 (percentage of potentiation is between about 10% to about −10%) | + (percentage of potentiation is greater than or equal to 10% but less than 50% in the presence of 100 nM of the compound) | 0 (percentage of potentiation is between about 10% to about −10%) | – | – | – | – | –
CN(C)CCNC1=CC(=O)N(Cc2c(-c3ccc(Br)cc3)nc3ccccn23)C1 [Compound 242, 1-((2-(4-bromophenyl)imidazo[1,2-a]pyridin-3-yl)methyl)-4-(2-(dimethylamino)ethylamino)-1H-pyrrol-2(5H)-one] | – | – | – | – | ++ (percentage of inhibition of central BZD site binding is greater than 80% in the presence of 1000 nM of the compound) | 10 to 50% | – | 10 to 50% | -10 to 10%
